Experimental findings from PubChem BioAssay AID2842 (Southern Research Institute, 2010) are described below.

The test system of this experiment is M. tuberculosis H37Rv growth inhibition. Put plainly: Mycobacterium tuberculosis H37Rv growth inhibition, putative kinase inhibitor library, confirmatory dose response (AID 2842).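 Note: bacteria incubated one week before Alamar blue readout.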

Molecules are shown by their SMILES. Values after ≈ are worked out from the molar mass of the structure shown.

`CCOc1ccc(-c2nnc3c4cc5c(cc4n(Cc4cccc(F)c4)cc2-3)OCO5)cc1`: the IC90 is 54.2 µg/mL (≈ 123 µM).
Consider `Cc1ccc(C)c2[nH]c(=O)c(CCNC(=S)NCCn3ccc4ccccc43)cc12`, for which the IC90 is 3.53 µg/mL (≈ 8.43 µM).
As for `COc1ccc(C(=O)/C=C2\C(=O)Nc3ccccc32)cc1`, the figure is 38.6 µg/mL (≈ 138 µM); as for `CCCCc1ccc2nc(Nc3nc4ccc(S(C)(=O)=O)cc4s3)sc2c1`, 31.8 µg/mL (≈ 76.1 µM).
As to `Cc1cccc2sc(NNC(=O)c3cccc(F)c3)nc12`, the IC90 was 9.09 µg/mL (≈ 30.2 µM).
Consider `COC(=O)c1c(NC(=O)c2ccccc2I)sc2c1CC(C)(C)NC2(C)C`, for which the IC90 is 13.2 µg/mL (≈ 26.6 µM).
For the molecule `Cc1c(C)n2c3c(=O)[nH]c(=O)n(C)c3nc2n1-c1ccccc1O`, the IC90 is 0.75 µg/mL (≈ 2.31 µM).
With `COc1ccc(-c2nsc(SCC(=O)Nc3ccc(C(C)=O)cc3)n2)cc1`, the 90% effect concentration (IC90) was 25.9 µg/mL (≈ 64.9 µM).
Regarding `CCN1CCc2c(sc(NC(=O)c3ccccc3)c2-c2nc3ccccc3s2)C1`, the IC90 was 0.73 µg/mL (≈ 1.74 µM).
Regarding `Cc1ccccc1Nc1nc(-c2cccnc2)nc2ccccc12`, the 90% effect concentration (IC90) was 7.35 µg/mL (≈ 23.5 µM).
`COc1ccc(OCc2nc(C#N)c(NCc3ccc(C)cc3)o2)cc1`: the concentration for an effect of 90% (IC90) is 12.1 µg/mL (≈ 34.7 µM).
Take `Cc1ccc(C2CC(c3c(-c4ccccc4)c4cc(Cl)ccc4[nH]c3=O)=NO2)cc1` (stereo not given): the concentration for an effect of 90% (IC90) is 12.4 µg/mL (≈ 29.9 µM).
For `CCS(=O)(=O)c1cccc(C(=O)Nc2nnc(-c3ccc(Br)cc3)o2)c1`, the concentration for an effect of 90% (IC90) is 7.76 µg/mL (≈ 17.8 µM).
For `CCc1cccc2sc(N(CCCn3ccnc3)C(=O)c3cc(OC)cc(OC)c3)nc12`, the 90% effect concentration (IC90) is 10.7 µg/mL (≈ 23.7 µM).
As to `O=C(Nc1nnc(-c2ccncc2)o1)c1ccc(F)cc1`, the IC90 is 3.23 µg/mL (≈ 11.4 µM).
As for `CC(=O)N1CCc2c(sc(NC(=O)c3ccc(N(C)C)cc3)c2C(N)=O)C1`, the figure is 8.5 µg/mL (≈ 22 µM); as for `Cc1ccc(-c2nnc(NC(=O)c3ccc(Cl)cc3Cl)o2)c(C)c1`, 4.12 µg/mL (≈ 11.4 µM).
With `CSc1nnc(C)c(=O)n1COC(=O)/C=C/c1ccc2c(c1)OCO2`, the IC90 was 11.2 µg/mL (≈ 31 µM).
Turning to `O=C(Nc1nnc(-c2ccc3c(c2)CCCC3)o1)c1c(F)cccc1F`, the IC90 is 4.5 µg/mL (≈ 12.7 µM).
`Cc1nnc2ccc(-c3cccc(NC(=O)c4cccc(C(F)(F)F)c4)c3)nn12`: the IC90 was 22.6 µg/mL (≈ 56.7 µM).
Turning to `COc1ccc(C)c2sc(N(CCCn3ccnc3)C(=O)c3cccs3)nc12`, the 90% effect concentration (IC90) is 2.4 µg/mL (≈ 5.82 µM).
As to `CCOC(=O)c1c(NC(=O)CCl)sc2c1CCCC2`, the 90% effect concentration (IC90) is 29.8 µg/mL (≈ 98.8 µM).
Consider `O=C(/C=C/c1ccccc1)Nc1nnc(-c2ccc3c(c2)CCCC3)o1`, for which the IC90 was 1.67 µg/mL (≈ 4.83 µM).
Take `Cc1ccc2c(c1)NC(=O)c1cc(NS(=O)(=O)c3ccc4c(c3)OCCO4)ccc1O2`: the IC90 is 17.5 µg/mL (≈ 39.9 µM).
As for `NC(=O)c1c(Nc2nc3ccc(F)cc3s2)sc2c1CCCC2`, the figure is 51.3 µg/mL (≈ 148 µM).
In the case of `O=C(CSc1nnc(-c2cccnc2)o1)N1CCC(Cc2ccccc2)CC1`, the concentration for an effect of 90% (IC90) is 0.87 µg/mL (≈ 2.21 µM).
Take `COc1cccc(-c2nnc(SCC(=O)Nc3cc(C)on3)o2)c1`: the concentration for an effect of 90% (IC90) is 3.26 µg/mL (≈ 9.41 µM).
As for `Cc1ccc(-c2nnc3c4cc5c(cc4n(Cc4cccc(C)c4)cc2-3)OCCO5)cc1`, the figure is 5.76 µg/mL (≈ 13.7 µM).
For `CCc1cccc2sc(N(CCCn3ccnc3)C(=O)/C=C/c3cccs3)nc12`, the concentration for an effect of 90% (IC90) was 0.83 µg/mL (≈ 1.96 µM).
In the case of `Cc1ccc(Cl)cc1N1CCN(CC(O)COc2ccccc2[N+](=O)[O-])CC1` (stereo not given), the IC90 was 13 µg/mL (≈ 32.1 µM).
In the case of `Cc1cc(C)c2nc(NNC(=O)c3cc4ccccc4oc3=O)sc2c1`, the IC90 was 2.16 µg/mL (≈ 5.91 µM).
As to `Fc1cccc2sc(Nc3nc(-c4cccs4)cs3)nc12`, the IC90 is 25.4 µg/mL (≈ 76 µM).
`CSc1cccc(-c2nnc(NC(=O)c3cc([N+](=O)[O-])ccc3Cl)o2)c1`: the 90% effect concentration (IC90) was 0.88 µg/mL (≈ 2.25 µM).
Take `Cc1ccc(N=Nc2c(C)[nH][nH]c2=O)cc1`: the IC90 is 10.1 µg/mL (≈ 46.6 µM).
Turning to `CCOc1cccc2sc(NC(=O)c3ccc(Cl)cc3Cl)nc12`, the 90% effect concentration (IC90) was 11.6 µg/mL (≈ 31.5 µM).
Consider `O=c1c2[nH]c3ccccc3c2nc(SCCN2CCCCC2)n1-c1ccccc1F`, for which the 90% effect concentration (IC90) is 14.6 µg/mL (≈ 34.6 µM).
For `OCCN1CCN(c2nc(Nc3cccc(Cl)c3)c3cnn(-c4ccccc4)c3n2)CC1`, the IC90 was 0.73 µg/mL (≈ 1.62 µM).
`O=C(NC1NC(c2ccccc2)=CS1)c1ccc([N+](=O)[O-])s1` (stereo not given): the IC90 was 3.42 µg/mL (≈ 10.3 µM).
Consider `CCOc1ccc(-c2[nH]ncc2-c2ccc(Cl)cc2)c(O)c1`, for which the 90% effect concentration (IC90) is 7.06 µg/mL (≈ 22.4 µM).
`CC(=O)N1CCc2c(sc(NC(=O)c3ccccc3Oc3ccccc3)c2C(N)=O)C1`: the IC90 is 18.3 µg/mL (≈ 42 µM).
Turning to `Cc1ccc(-c2nnc(NC(=O)c3ccccc3)o2)c(C)c1`, the 90% effect concentration (IC90) was 8.78 µg/mL (≈ 29.9 µM).
Turning to `COc1ccc(C(=O)Nc2nc3c(s2)CCCC3)cc1OC`, the IC90 is 22.8 µg/mL (≈ 71.7 µM).
As for `CC(C)Cn1c(N2CCN(Cc3ccc(Cl)c(Cl)c3)CC2)nc2c1c(=O)[nH]c(=O)n2C`, the IC90 was 1.43 µg/mL (≈ 3.07 µM).
The result for `COc1ccccc1Cn1cc2c(-c3ccc(F)cc3)nnc-2c2cc(OC)c(OC)cc21` reads 22 µg/mL (≈ 49.7 µM); that for `Cc1ccc2sc(N(CCN(C)C)C(=O)c3cccc4ccccc34)nc2c1C`, 11.8 µg/mL (≈ 29.2 µM); that for `O=C(CS(=O)(=O)c1ccccc1)Nc1nc(-c2ccc3c(c2)CCCC3)cs1`, 1.02 µg/mL (≈ 2.47 µM).
As to `Cc1ccc(C)c2sc(N(CCCn3ccnc3)C(=O)c3ccc(F)cc3)nc12`, the IC90 is 4.35 µg/mL (≈ 10.6 µM).
As for `Cc1cc(C)c2sc(N3CCCC3)nc2c1`, the IC90 is 1.75 µg/mL (≈ 7.53 µM).
As to `COc1ccccc1-c1cnn2c(Nc3cccc(Cl)c3)cc(C)nc12`, the concentration for an effect of 90% (IC90) is 1.72 µg/mL (≈ 4.71 µM).
With `CCCCC(=O)Nc1nc(-c2ccccc2)c(C(C)=O)s1`, the 90% effect concentration (IC90) is 13.7 µg/mL (≈ 45.4 µM).
